Assay results: patent US11312722B2, “Hsp90 inhibitors and uses thereof” (TRUSTEES OF BOSTON UNIVERSITY, priority 2019, dated 2022)

Key:
[1] = molecular target: Hsp90 (C. neoformans whole cell lysate) (Cryptococcus neoformans, UniProt J9VVA4); format: binding; conditions: for EC50: read-out: C. neo EC50; for C. neo Active (biochemical): Yes/No call
Procedure: (§1) All analogs were assessed for Hsp90 binding affinity using a fluorescence polarization (FP)-based equilibrium competition assay in fungal and human whole cell lysates. […] Using lysates, the relative potency and selectivity for fungal Hsp90 was measured versus the entire ensemble of human Hsp90 isoforms in microplate format using small amounts of test materials. […] Thermal shift assays were performed under saturating ligand conditions, i.e. equimolar concentrations (10 μM) of protein and ligand. As a result, they provided qualitative evidence of target binding, but not a quantitative measurement of ligand affinity. For quantitation, a ligand dissociation constant (Ki) for key compounds was also determined using purified NBDs in FP assays and KD measurements were made by surface plasmon resonance (SPR) using a Biacore instrument. Finally, all analogs were assessed for whole cell antifungal activity against the pathogens C. albicans and C. neoformans.
(§2) FP assays. Whole cell lysates were prepared for FP assays as described previously. Total protein concentration of human and yeast lysates was determined by Bradford assay. […] Serial dilutions of test Hsp90 inhibitors were then assayed under these same conditions to monitor loss of fluorescence polarization as an indicator of probe displacement from Hsp90. […] Titrations of test compound in 25 μL of binding buffer (supplemented with 0.1 mg/mL bovine gamma globulin), were mixed with an equal volume of freshly prepared whole-cell lysate spiked with Cy3-GdA (0.1 nM). Plates were incubated at room temperature for 4.5 h to achieve equilibrium binding for the geldanamycin-based probe. […] Non-linear 4-parameter curve fitting of raw displacement data was performed in GraphPad Prism 5.0 to determine EC50 values as a measure of relative Hsp90-binding affinity. Results were normalized to the value determined for GdA in lysate of each cell type.
(§3) Statistical methods. […] In calculating the error of selectivity determinations, the fractional error of measurements in each species was summed to yield a composite error for the derived ratio.

[2] = system: Hsp90 (C. neoformans whole cell lysate); format: binding; conditions: for C. neo Selectivity (FS): C. neo FS calculated using EC50
Procedure: as §1, §2, §3

[3] = molecular target: Hsp90 (C. albicans whole cell lysate) (Candida albicans (strain SC5314 / ATCC MYA-2876) (Yeast), UniProt P46598); assay: biochemical; format: binding; conditions: for C. alb Active (biochemical): Yes/No call; for EC50: read-out: C. alb EC50
Procedure: as §1, §2, §3

[4] = system: Hsp90 (C. albicans whole cell lysate); assay: biochemical; format: binding; conditions: for C. alb Selective: Yes/No call
Procedure: as §1, §2, §3

[5] = system: C. neoformans (Strain H99); assay: Antifungal sensitivity testing (MIC), C. neoformans H99; format: cell-based; conditions: for MIC80 / MIC90: Cryptococcus neoformans; for MIC80: read-out: C. neo MIC80; for MIC90: read-out: C. neo MIC90; for C. neo Active (cells): Yes/No call
Procedure: Color scale bar: no growth inhibition (green) to complete inhibition (black). Each shaded box represents the mean of technical duplicates. The experiment was repeated as an independent biological replicate to confirm results.
Minimum inhibitory concentration (MIC) value for compounds against C. neoformans (Strain H99) was determined in dose-response format, in technical duplicate. Experiments were conducted in RPMI medium at 37° C. for 48 h. Relative viable cell number was measured by standard dye reduction (resazurin) assay.
Yeast strains and culture conditions. Strains used in this study were C. albicans CaCi2 (clinical isolate 2), [58] SC5314, [59] and C. neoformans H99. […] Active cultures were maintained on solid (2% agar) yeast extract peptone (YPD, 1% yeast extract, 2% bactopeptone, 2% glucose) at 4° C. for no more than one month.
Antifungal sensitivity testing. […] Each compound was tested in duplicate in at least two independent experiments. […] Plates were photographed after 24 h of incubation at 30° C.

[6] = mouse liver microsomes
in vitro = conditions: both, CD-1, mouse, liver microsomes

Hsp90 (C. neoformans whole cell lysate) (Cryptococcus neoformans, UniProt J9VVA4), sequence (J9VVA4 1-699): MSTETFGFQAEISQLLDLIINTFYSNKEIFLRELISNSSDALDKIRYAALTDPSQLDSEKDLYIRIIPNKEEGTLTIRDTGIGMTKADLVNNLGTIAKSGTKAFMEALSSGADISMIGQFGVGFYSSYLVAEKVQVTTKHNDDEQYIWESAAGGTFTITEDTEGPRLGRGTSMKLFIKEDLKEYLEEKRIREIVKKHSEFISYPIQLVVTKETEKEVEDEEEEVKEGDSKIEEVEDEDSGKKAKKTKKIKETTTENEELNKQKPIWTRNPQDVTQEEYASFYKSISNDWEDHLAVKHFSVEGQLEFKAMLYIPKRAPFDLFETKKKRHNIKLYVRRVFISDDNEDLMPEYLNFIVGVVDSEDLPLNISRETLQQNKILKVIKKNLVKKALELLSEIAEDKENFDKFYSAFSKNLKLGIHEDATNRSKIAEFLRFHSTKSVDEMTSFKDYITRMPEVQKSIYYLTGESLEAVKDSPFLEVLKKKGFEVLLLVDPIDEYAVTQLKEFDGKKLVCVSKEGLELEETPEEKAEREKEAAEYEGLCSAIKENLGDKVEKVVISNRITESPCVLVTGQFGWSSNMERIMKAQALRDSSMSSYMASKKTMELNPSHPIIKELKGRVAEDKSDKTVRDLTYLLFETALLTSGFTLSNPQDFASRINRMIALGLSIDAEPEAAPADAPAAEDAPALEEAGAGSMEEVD

SMILES	EC50 [1]	C. neo Selectivity (FS) [2]	C. alb Active (biochemical) [3]	EC50 [3]	C. alb Selectivity (FS) [4]	C. alb Selective [4]	C. neo MIC80 [5]	C. neo MIC90 [5]	MIC80 [5]	MIC90 [5]	C. neo Active (biochemical) [1]	C. neo selective ([2]; Yes/No call)	C. neo Active (cells) [5]	% remaining at 15 min (NADPH-free) ([6]; NADPH-free control)	% remaining at 15 min ([6]; with NADPH)	% remaining at 60 min ([6]; with NADPH)	CLint scaled at 1 μM (in vitro)	half-life at 1 μM (in vitro)
Cc1cccc(-c2cc(Nc3cc(O)cc(O)c3C(=O)N3Cc4ccc(N5CCN(C)CC5)cc4C3)n(C)n2)c1 [ACSM01279]	0.449 µM	18.3	Yes	2.15 µM	3.7	No	>25 µM	>25 µM	–	–	–	–	–	–	–	–	–	–
Cc1cccc(-c2cc(Nc3cc(O)cc(O)c3C(=O)N3Cc4ccc(N5CCOCC5)cc4C3)n(C)n2)c1 [ACSM01280]	2 µM	6	No	> 10 µM	–	No	>25 µM	>25 µM	–	–	–	–	–	–	–	–	–	–
Cn1nccc1Nc1cc(O)cc(O)c1C(=O)N1CC2CC2C1 (centres unmarked) [ACSM01301]	2.4 µM	5	No	> 10 µM	–	No	>25 µM	>25 µM	–	–	–	–	–	–	–	–	–	–
O=C(c1c(O)cc(O)cc1Nc1cc(-c2ccccc2)nn1-c1ccccc1)N1Cc2ccccc2C1 [ACSM01305]	0.577 µM	8.1	Yes	1.89 µM	0.9	No	6.25 µM	3 µM	–	–	–	–	–	–	–	–	–	–
COc1cccc(-c2cc(Nc3cc(O)cc(O)c3C(=O)N3Cc4ccc(N5CCN(C)CC5)cc4C3)n(C)n2)c1 [ACSM01375]	1.24 µM	9.6	No	> 10 µM	–	No	>25 µM	>25 µM	–	–	–	–	–	–	–	–	–	–
O=C(O)Cn1nc(-c2ccccc2)cc1Nc1cc(O)cc(O)c1C(=O)N1Cc2ccccc2C1 [ACSM01476]	0.537 µM	5.8	Yes	2.12 µM	1.4	No	>25 µM	>25 µM	–	–	–	–	–	–	–	–	–	–
Cc1cccc(-n2nc(C)c(Nc3cc(O)cc(O)c3C(=O)N3Cc4ccccc4C3)c2C)c1 [ACSM01486, (2-((3,5-Dimethyl-1-(m-tolyl)-1H-pyrazol-4-yl)amino)-4,6-dihydroxyphenyl)(isoindolin-2-yl)methanone]	0.034 µM	43.4	Yes	2.06 µM	0.7	No	–	–	> 25 µM	> 25 µM	–	–	–	–	–	–	–	–
CN1CCN(c2ccc3c(c2)CN(C(=O)c2c(O)cc(O)cc2Nc2cc(-c4cccc(C(F)(F)F)c4)nn2C)C3)CC1 [ACSM01487]	0.055 µM	50.1	Yes	1.16 µM	2.3	No	>25 µM	>25 µM	–	–	–	–	–	–	–	–	–	–
Cn1nc(-c2ccccc2C(F)(F)F)cc1Nc1cc(O)cc(O)c1C(=O)N1Cc2ccncc2C1 [ACSM01491]	0.047 µM	62.2	Yes	0.724 µM	3.9	No	>25 µM	>25 µM	–	–	–	–	–	–	–	–	–	–
COc1cccc(-c2cc(Nc3cc(O)cc(O)c3C(=O)N3Cc4ccncc4C3)n(C)n2)c1 [ACSM01492]	0.258 µM	46.2	Yes	10.6 µM	1.1	No	>25 µM	>25 µM	–	–	–	–	–	–	–	–	–	–
COc1ccccc1-n1nc(C)c(Nc2cc(O)cc(O)c2C(=O)N2Cc3ccccc3C2)c1C [ACSM01493, (2,4-Dihydroxy-6-((1-(2-methoxyphenyl)-3,5-dimethyl-1H-pyrazol-4-yl)amino)phenyl)(isoindolin-2-yl)methanone]	0.191 µM	7.2	Yes	1.06 µM	1.2	No	–	–	> 25 µM	> 25 µM	–	–	–	–	–	–	–	–
Cc1nn(-c2cccc(C(F)(F)F)c2)c(C)c1Nc1cc(O)cc(O)c1C(=O)N1Cc2ccccc2C1 [ACSM01494, (2-((3,5-Dimethyl-1-(3-(trifluoromethyl)phenyl)-1H-pyrazol-4-yl)amino)-4,6-dihydroxyphenyl)(isoindolin-2-yl)methanone]	0.03 µM	97.7	Yes	1.59 µM	1.8	No	–	–	> 25 µM	> 25 µM	–	–	–	–	–	–	–	–
COc1ccc(Cn2nc(-c3ccccc3)cc2Nc2cc(O)cc(O)c2C(=O)N2Cc3ccncc3C2)cc1 [BUCMD00433]	0.075 µM	13	Yes	0.011 µM	31	Yes	>25 µM	>25 µM	–	–	Yes	Yes	No	–	–	–	–	–
COc1ccc(Cn2nc(-c3ccccc3)cc2Nc2cc(O)cc(O)c2C(=O)N2Cc3cccnc3C2)cc1 [Compound 23, 5-((1-((4-Methoxyphenyl)methyl)-3-phenyl-1H-pyrazol-5-yl)amino)-4-(5H,6H,7H-pyrrolo[3,4-b]pyridine-6-carbonyl)benzene-1,3-diol]	–	–	–	–	–	–	–	–	> 25 µM	> 25 µM	Yes	–	No	–	–	–	–	–
Cn1nc(C2CCCCC2)cc1Nc1cc(O)cc(O)c1C(=O)N1Cc2cn[nH]c2C1 [Compound 105, 5-((3-Cyclohexyl-1-methyl-1H-pyrazol-5-yl)amino)-4-(1H,4H,5H,6H-pyrrolo[3,4-c]pyrazole-5-carbonyl)benzene-1,3-diol]	–	–	–	–	–	–	–	–	–	–	–	–	–	103.6%	2.3%	0%	1990 mL/min/kg	2.7 min
Cc1ccc(-c2cc(Nc3cc(O)cc(O)c3C(=O)N3Cc4cccnc4C3)n(C)n2)cc1 [Compound 119, 5-((1-Methyl-3-(4-methylphenyl)-1H-pyrazol-5-yl)amino)-4-(5H,6H,7H-pyrrolo[3,4-b]pyridine-6-carbonyl)benzene-1,3-diol]	–	–	Yes	–	–	–	–	–	> 25 µM	> 25 µM	–	–	–	–	–	–	–	–
Cc1ccc(-c2cc(Nc3cc(O)cc(O)c3C(=O)N3Cc4cn[nH]c4C3)n(C)n2)cc1 [Compound 120, 5-((1-Methyl-3-(4-methylphenyl)-1H-pyrazol-5-yl)amino)-4-(1H,4H,5H,6H-pyrrolo[3,4-c]pyrazole-5-carbonyl)benzene-1,3-diol]	–	–	Yes	–	–	–	–	–	> 25 µM	> 25 µM	–	–	–	–	–	–	–	–
COc1ccc(-c2cc(Nc3cc(O)cc(O)c3C(=O)N3Cc4cccnc4C3)n(C)n2)cc1 [Compound 122, 5-((3-(4-Methoxyphenyl)-1-methyl-1H-pyrazol-5-yl)amino)-4-(5H,6H,7H-pyrrolo[3,4-b]pyridine-6-carbonyl)benzene-1,3-diol]	–	–	Yes	–	–	–	–	–	> 25 µM	> 25 µM	–	–	–	–	–	–	–	–
COc1ccc(-c2cc(Nc3cc(O)cc(O)c3C(=O)N3Cc4cn[nH]c4C3)n(C)n2)cc1 [Compound 123, 5-((3-(4-Methoxyphenyl)-1-methyl-1H-pyrazol-5-yl)amino)-4-(1H,4H,5H,6H-pyrrolo[3,4-c]pyrazole-5-carbonyl)benzene-1,3-diol]	–	–	Yes	–	–	–	–	–	> 25 µM	> 25 µM	–	–	–	–	–	–	–	–
